Reference: publication PMC8011931, “Identification, Structure–Activity Relationship, and Biological Characterization of 2,3,4,5-Tetrahydro-1H-pyrido[4,3-b]indoles as a Novel Class of CFTR Potentiators” (Journal of Medicinal Chemistry, 2020)

Target: T1, CFTR (Homo sapiens, UniProt P13569)
T1 construct: primary human bronchial epithelial (HBE) cells, from non-CF individuals; endogenous in cells; host or cells: primary human bronchial epithelial cells from non-CF individuals
Assay: Short-circuit current recordings on primary HBE cells from non-CF individuals
Type: cell-based
Description: Subsequently, the ability of compounds to elicit CFTR-mediated chloride secretion was verified on primary human bronchial epithelial (HBE) cells, from non-CF individuals, in short-circuit current experiments. In this respect, it should be noticed that potentiators are also able to stimulate wild-type CFTR, provided that a submaximal cAMP-dependent stimulation is applied.[20],[22] Accordingly, cells were stimulated with a submaximal concentration of the cAMP analogue, CPT-cAMP, followed by increasing concentrations of the potentiator hit.[20],[22]
Finally, potentiator 39 and VX-770 were further evaluated in primary HBE cells from non-CF individuals, using short-circuit current measurements, to assess the ability of compounds to maximally activate CFTR function in the presence of a submaximal cAMP stimulation. After the addition of amiloride to inhibit sodium absorption through the ENaC channel, the potentiators were added at the maximal effective concentration (1 μM) after which epithelia were stimulated with a submaximal concentration of CPT-cAMP (5 μM), followed by a maximal concentration of the cAMP analogue (100 μM) (Figure 8). We then measured the extent of CFTR-mediated chloride current elicited by submaximal cAMP stimulation in the presence of a potentiator and compared it to total CFTR-mediated chloride current, determined as the current inhibited by CFTR inhibitor-172. In parallel, other epithelia were stimulated only with the two concentrations of the cAMP analogue, in the absence of a potentiator.
Primary bronchial epithelial cells were cultured as previously described.[58] In brief, epithelial cells were cultured in a serum-free medium (LHC9 mixed with RPMI 1640, 1:1) supplemented with hormones and supplements to support cell number amplification. Then, the cells were seeded at high density on porous membranes (500,000 cells for 1 cm^2 Snapwell inserts, for Ussing chamber studies; 200,000 cells for 0.33 cm^2 Mini-Transwell inserts, for TEER/PD measurements). After 24 h, the serum-free medium was replaced with Dulbecco’s modified Eagle’s medium (DMEM)/Ham’s F12 containing 2% fetal bovine serum (FBS) plus hormones and supplements. Differentiation of cells to form a tight epithelium was monitored by measuring transepithelial electrical resistance and potential difference with an epithelial voltohmmeter (EVOM1, World Precision Instruments). […]
Differentiated bronchial epithelia on Snapwell inserts were mounted in a Ussing chamber with internal fluid circulation. […] The short-circuit current was recorded with a PowerLab 4/25 (ADInstruments) analog-to-digital converter connected to a personal computer.

T1 sequence (P13569 whole entry): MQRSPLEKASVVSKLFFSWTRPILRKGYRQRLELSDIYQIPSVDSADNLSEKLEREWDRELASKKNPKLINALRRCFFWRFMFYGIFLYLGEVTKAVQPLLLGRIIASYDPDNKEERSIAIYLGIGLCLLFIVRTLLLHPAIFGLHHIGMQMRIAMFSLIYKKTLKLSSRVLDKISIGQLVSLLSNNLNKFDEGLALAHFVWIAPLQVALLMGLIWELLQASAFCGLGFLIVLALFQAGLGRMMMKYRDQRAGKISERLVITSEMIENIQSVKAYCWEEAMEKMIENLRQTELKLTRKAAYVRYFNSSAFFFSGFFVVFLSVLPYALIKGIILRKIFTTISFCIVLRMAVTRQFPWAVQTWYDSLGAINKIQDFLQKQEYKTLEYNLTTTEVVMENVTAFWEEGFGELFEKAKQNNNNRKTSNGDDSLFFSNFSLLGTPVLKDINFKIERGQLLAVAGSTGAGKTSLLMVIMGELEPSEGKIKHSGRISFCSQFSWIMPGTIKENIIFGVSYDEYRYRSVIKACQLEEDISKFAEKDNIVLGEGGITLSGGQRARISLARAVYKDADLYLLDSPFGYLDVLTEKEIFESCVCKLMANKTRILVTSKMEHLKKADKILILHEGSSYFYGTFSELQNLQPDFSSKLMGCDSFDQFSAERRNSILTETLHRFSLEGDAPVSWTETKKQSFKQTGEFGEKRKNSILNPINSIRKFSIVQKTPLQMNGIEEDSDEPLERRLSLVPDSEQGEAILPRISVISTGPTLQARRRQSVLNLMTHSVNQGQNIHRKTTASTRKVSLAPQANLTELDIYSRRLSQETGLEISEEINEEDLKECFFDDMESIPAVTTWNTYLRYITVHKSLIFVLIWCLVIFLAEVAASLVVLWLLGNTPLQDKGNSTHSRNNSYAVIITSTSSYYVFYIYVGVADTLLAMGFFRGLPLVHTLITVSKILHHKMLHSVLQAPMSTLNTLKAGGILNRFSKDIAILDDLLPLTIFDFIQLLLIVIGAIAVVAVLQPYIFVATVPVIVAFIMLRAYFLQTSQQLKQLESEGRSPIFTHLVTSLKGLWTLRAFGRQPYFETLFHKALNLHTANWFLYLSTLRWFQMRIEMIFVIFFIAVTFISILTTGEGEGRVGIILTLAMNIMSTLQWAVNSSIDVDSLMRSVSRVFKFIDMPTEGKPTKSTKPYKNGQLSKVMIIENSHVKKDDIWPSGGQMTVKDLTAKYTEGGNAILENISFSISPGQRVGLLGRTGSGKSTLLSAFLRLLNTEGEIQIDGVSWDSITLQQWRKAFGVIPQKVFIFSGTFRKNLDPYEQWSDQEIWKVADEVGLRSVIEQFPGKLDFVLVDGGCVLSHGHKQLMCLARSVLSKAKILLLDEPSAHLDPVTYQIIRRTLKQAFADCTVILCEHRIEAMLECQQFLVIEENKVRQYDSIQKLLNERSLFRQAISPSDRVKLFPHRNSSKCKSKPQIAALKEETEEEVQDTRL

## Cc1ccc(F)c2[nH]c3c(c12)CN(C(=O)c1cc(C(F)(F)F)[nH]n1)[C@H](C)C3 [Compound 39, (R)-(6-Fluoro-3,9-dimethyl-1,3,4,5-tetrahydro-2H-pyrido[4,3-b]indol-2-yl)-(5-(trifluoromethyl)-1H-pyrazol-3-yl)methanone]
1 μM for both compounds, Figure 8B
  comparison of effectiveness of potentiators: similarly effective
Potentiator 1 μM, CPT-cAMP 5 μM, versus no potentiator
  increase of the fraction of CFTR-mediated chloride current activated by submaximal cAMP stimulation: more than 2 fold
